Biological target: T1, α1β3 GABAAR WT (Homo sapiens, UniProt P14867+P28472)
T1 construct: inserted between the fourth and fifth residues of the mature peptide; photolabeling full-length heteropentameric GABAARs in native membranes; expressed in transfected cells
T1 sequence (P14867 28-456): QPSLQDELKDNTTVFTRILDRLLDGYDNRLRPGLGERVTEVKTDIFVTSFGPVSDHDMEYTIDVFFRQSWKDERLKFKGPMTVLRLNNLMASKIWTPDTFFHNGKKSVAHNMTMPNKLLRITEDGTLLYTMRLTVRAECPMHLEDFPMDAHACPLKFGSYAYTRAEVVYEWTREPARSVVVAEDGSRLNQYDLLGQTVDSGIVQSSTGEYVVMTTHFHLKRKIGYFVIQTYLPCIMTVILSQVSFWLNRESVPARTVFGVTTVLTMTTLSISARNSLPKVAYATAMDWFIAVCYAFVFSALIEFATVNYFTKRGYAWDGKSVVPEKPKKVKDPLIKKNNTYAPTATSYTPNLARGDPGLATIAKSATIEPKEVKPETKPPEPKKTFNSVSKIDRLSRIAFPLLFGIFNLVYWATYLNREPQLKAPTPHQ
T1 sequence (P28472 26-473): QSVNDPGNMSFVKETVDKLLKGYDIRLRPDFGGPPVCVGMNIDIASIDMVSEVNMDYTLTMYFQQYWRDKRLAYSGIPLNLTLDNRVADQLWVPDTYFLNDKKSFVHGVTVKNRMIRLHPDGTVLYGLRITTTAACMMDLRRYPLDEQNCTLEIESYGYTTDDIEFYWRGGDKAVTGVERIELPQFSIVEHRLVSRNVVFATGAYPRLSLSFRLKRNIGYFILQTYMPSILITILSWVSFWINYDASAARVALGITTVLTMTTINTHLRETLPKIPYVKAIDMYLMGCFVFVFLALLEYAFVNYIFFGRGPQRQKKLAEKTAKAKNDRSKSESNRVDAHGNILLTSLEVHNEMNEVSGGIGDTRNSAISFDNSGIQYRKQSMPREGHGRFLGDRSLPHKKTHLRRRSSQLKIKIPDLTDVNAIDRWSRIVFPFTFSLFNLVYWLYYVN
Experiment: [3H]muscimol binding to HEK cell membranes (neurosteroid modulation and isotherms), WT receptor
Settings: WT α1β3
Protocol: Stably transfected cells were plated into dishes. After reaching 50% confluence, GABAA receptors were expressed by inducing cells with 1 μg/ml of doxycycline with the addition of 5 mM sodium butyrate. Cells were harvested 48 to 72 hr after induction. HEK cells, after induction, were grown to 100% confluence, harvested and washed with 10 mM potassium phosphate, 100 mM potassium chloride (pH 7.5) plus protease inhibitors (Sigma-Aldrich, St. Louis, MO) two times. The cells were collected by centrifugation at 1,000 g at 4°C for 5 min. The cells were homogenized with a glass mortar and a Teflon pestle for ten strokes on ice. The pellet containing the membrane proteins was collected after centrifugation at 20,000 g at 4°C for 45 min and resuspended in a buffer containing 10 mM potassium phosphate, 100 mM potassium chloride (pH 7.5). The protein concentration was determined with micro-BCA protein assay and membranes were stored at −80°C.
[^3H]muscimol-binding assays were performed using a previously described method ([Chen et al., 2019]). […] Assay tubes were incubated for 1 hr on ice in the dark. […] Membranes were collected on Whatman/GF-C glass filter papers using a Brandel cell harvester (Gaithersburg, MD). To perform [^3H]muscimol binding isotherms, 100 μg/ml aliquots of membrane protein were incubated with 0.3 nM–1 μM [^3H]muscimol for 1 hr on ice in the dark. The specific activity for [^3H]muscimol concentrations from 30 nM to 1 μM was reduced to 2 Ci/mmol by dilution with nonradioactive muscimol. The membranes were collected on Whatman/GF-B glass filter papers using a vacuum manifold. […] For [^3H]muscimol-binding experiments examining competitive interactions between neurosteroids, the combined neurosteroids (0.3 μM 3α5αP or 3 μM KK148 ±30 μM KK150) or the same volume of dimethyl sulfoxide (DMSO) were added to the membranes which were then incubated with 3 nM [^3H]muscimol on ice for 1 hr. Time courses of neurosteroid [^3H]muscimol binding enhancement were examined by adding 10 µM of neurosteroids (3α5αP, 3β5αP) to membranes that had been fully equilibrated with 3 nM [^3H]muscimol for 1 hr on ice; binding was then measured as a function of time at 1, 3, 10, 30, 60 min. The membranes were collected on Whatman/GF-B glass filter papers using a vacuum manifold. Radioactivity bound to the filters was measured by liquid scintillation spectrometry using Bio-Safe II (Research Products International, Mount Prospect, IL).

## CCOC(=O)c1cncn1[C@H](C)c1ccccc1 [Etomidate, etomidate]
3 nM [3H]muscimol, 100% means no effect
  Emax (% of control) of [3H]muscimol binding: 331.1 ± 9.9 % of control
Etomidate 100 μM, 3α5αP 30 μM, KK148 30 μM, control 9.8 ± 0.8
  Bmax of [3H]muscimol binding isotherm in the presence of the modulator: 10.1 ± 0.5 pmol/mg
